From patent US6893846B2, “Primers for use in detecting beta-lactamases” (priority 1998, dated 2005)
In brackets after ≈: the same amount, converted by molar mass.

Assays:
K. pneumoniae 225 [1] = experiment: NCCLS microdilution susceptibility test; format: cell-based, Klebsiella pneumoniae; conditions: Klebsiella pneumoniae, 225
[2] = target: beta-lactamases in sonic extracts of P. mirabilis (Escherichia coli, UniProt P62593, E102K/R162S); experiment: Isoelectric focusing overlay: cefotaxime hydrolysis and inhibitors; conditions: beta-lactamase pI 5.6 (TEM-10 or 26), 0.75 μg/ml cefotaxime
[3] = test system: E. coli C600N transconjugants; experiment: Susceptibility of transconjugants; format: cell-based, Escherichia coli; conditions: E. coli C600N transconjugants of E. aerogenes 187, 200, 220, 184
Protocol: Antibiotic susceptibilities were determined by standard disk-diffusion (NCCLS Standard M2-A6) and agar-dilution (NCCLS Standard M7-A4) procedures. Disks were obtained from Becton Dickinson Microbiology Systems (Cockeysville, Md.). Disk-diffusion susceptibilities to the following antibiotics were determined, ampicillin; amoxicillin clavulanic acid; aztreonam; cefazolin; cefoxitin; cefuroxime; cefotaxime; ceftriaxone; ceftazidime; cefepime; imipenem; gentamicin; trimethoprim/sulfamethoxazole and ciprofloxacin. […] The following quality control strains were run simultaneously with the test organisms Escherichia coli ATCC 25922, Pseudomonas aeruginosa ATCC 27853, and E. coli ATCC 35218. Throughout this study, results were interpreted using NCCLS criteria for disk diffusion (NCCLS M2-A6) and broth dilution (NCCLS M7-A4).
[…]. The filter paper mating technique with overnight incubation at 37° C. were performed as described previously (Philippon et al., Antimicrob. Agents Chemother., 33:1131-1136 (1989)). Transconjugants were selected on LB (Luria Bertani) agar [Difco (Detroit, Mich.)] plates containing 12 μg per ml nalidixic acid and 20 μg per ml ampicillin.

K. pneumoniae 225 [4] = experiment: Three-dimensional test (enzymatic inactivation of antibiotics); conditions: beta-lactamase-mediated hydrolysis by K. pneumoniae 225, lawn E. coli ATCC 25922
[5] = target: single beta-lactamase in P. mirabilis cell extracts (Escherichia coli, UniProt P62593, E102K/R162S); experiment: Spectrophotometric hydrolysis assay on crude beta-lactamase extracts; conditions: P. mirabilis Pit 85 extract, beta-lactamase pI 5.6; 100 μM substrate
K. pneumoniae = experiment: Agar dilution MIC, South African isolates; format: cell-based, Klebsiella pneumoniae; conditions: tzp with tazobactam 4 μg/ml
Source text: (§1) The strains were provided in response to a request for all strains of Enterobacteriaceae, lacking inducible beta-lactamases, that were intermediate or resistant to cefotaxime or ceftazidime. […]

[6] = test system: E. coli C600 transconjugant; conditions: disk diffusion, Tc = transconjugate E. coli C600
E. coli = experiment: Agar dilution MIC, South African isolates; format: cell-based, Escherichia coli; conditions: tzp with tazobactam 4 μg/ml
Source text: as §1

In the case of CO/N=C(\C(=O)N[C@@H]1C(=O)N2C(C(=O)O)=C(COC(C)=O)CS[C@H]12)c1csc(N)n1 [cefotaxime], the MIC (K. pneumoniae 225 [1]) is reported as 16 µg/mL (≈ 35.1 µM), the ctx hydrolysis [2] is reported as “Yes” and the “susceptibility after transfer of plasmids encoding SHV beta-lactamase genes” value [3] is reported as “decreased susceptibility”. For the same molecule, the three dimensional test (K. pneumoniae 225 [4]) was “positive”, the Hydrolysis [5] was 5 nmol of substrate hydrolyzed/m and the MIC range (K. pneumoniae; resistance phenotype Kpn1, 8 strains) was 0.25 to 1 µg/mL. For the same molecule, the MIC range (K. pneumoniae; resistance phenotype Kpn2, 28 strains) was 4 to 64 µg/mL, the MIC range (K. pneumoniae; resistance phenotype Kpn3 (K. pneumoniae Pit 68), 1 strain, listed as ctx) was 4 µg/mL and the “Zone Size” value [6] was 12 mm. It also gave an MIC range (E. coli; resistance phenotype Ec1, 3 strains) of 1 µg/mL and an MIC range (E. coli; resistance phenotype Ec2, 1 strain) of 16 µg/mL.
